From patent US6169104A, “Di-aryl ethers and their derivatives as anti-cancer agents” (Large Scale Biology Corporation, priority 1998, dated 2001)

How the values were obtained:
[1] = tested on: angiogenesis induced by hFGF-B in the CAM; test: Chick chorioallantoic membrane (CAM) assay, 14C-proline incorporation into collagenous protein; type: in vivo, chick embryo; details: for effect in the CAM assay: summary of the two experiments
Description: BTO-964 [methyl 3,5-diiodo-4(4'-methoxyphenoxy) benzaldehyde], and BTO-967 [methyl 3,5-diiodo-4(4'-methoxyphenoxy)-thiobenzoate] were tested in the CAm assay. The endpoint of the CAM assay was a quantiative determination of basement membrane biosynthesis by measuring the incorporation of ^14 C-proline into Type IV collagenous protein.
The CAM assay involves the development of live chick embryos in Petri dishes under special sterile conditions. Therefore, only limited numbers of embryos can be used for evaluation of compounds in a single experiment. BTO-964 and BTO-967 was tested in separate assays. A known angiogenesis inhibitor, 2-methoxyestradiol (2-ME), was used as the positive control, and human fibroblast growth factor (hFGF) was used to induce angiogenesis in the CAM.
For testing, a minimum amount of acetone-methanol (1:1) was added to the test compounds for sterilization. The acetone-methanol mixture was then evaporated to dryness in a sterile hood. The compounds were dissolved in dimethyl sulfoxide (DMSO) first and then diluted with saline containing methylcellulose. The final concentrations were 2% DMSO and 0.5% methylcellulose. all test solutions were added to each CAM in […] aliquots.
Fresh fertile eggs were incubated for three days in a standard egg incubator. On Day 3, eggs were cracked under sterile conditions and embryos were placed in 20×100 mm plastic Petri dishes and cultivated at 37° C. in an embryo incubator with a water reservoir on the bottom shelf. Air was continuously bubbled into the water reservoir by using a small pump so that the humidity in the incubator was kept constant. Observations were made daily to ensure that all embryos were healthy. Dead or unhealthy embryos were removed from the incubator immediately to avoid contamination. On Day 9, a sterile silicone ring cup was placed on each CAM and 0.5 mCi of ^14 C-proline with or without the test compound plus 2.5 ng of hFGF dissolved in saline containing 0.5% methylcellulose was delivered into each ring cup in a sterile hood. 2-ME was tested in parallel to serve as a reference compound. After addition of test materials, the embryos were returned to the incubator and cultivation continued. On Day 12, all embryos were transferred to a cold room at 4-10° C.
Using the procedure outlined in Maragoudakis, et al., (1989) J. Pharm. Exp. Ther. 251:679-682, the embryos were placed on ice and a piece of CAM 10 mm in diameter was cut off under each ring cup and placed in a separate tube. To each tube was added 1.0 ml of phosphate-buffered saline (PBS, pH 7.3) containing 0.11 mg cycloheximide and 0.17 mg dipyridyl. The tubes were placed in a boiling water bath for 10 min and then cooled to room temperature. The PBS in each tube was discarded after centrifugation at 3000×G for 10 min. The CAM residue was washed once with 3 ml of 15% TCA and then three times with 3 ml of 5% TCA. Centrifugation was carried out as described above between each washing. At this point all non-protein bound radioactivity was removed, and the CAM containing the newly synthesized ^14 C-collagenous protein was suspended in 0.9 ml of 0.1 N NaOH and 1.1 ml of HEPES buffer at pH 7.4. The pH of the sample was neutralized with 0.8 N HCl, using phenol red as indicator.
To digest the ^14 C-collagenous protein, 7.5 units of collagenase and 500 nmol of calcium chloride in […] of HEPES buffer was added to the above samples, and mixtures were incubated at 37° C. for 4 h. The reaction was stopped by adding 1.0 ml of 20% TCA containing 5 mg of tannic acid into each tube. After vortex mixing, the samples were centrifuged at 3000×G for 10 min. An aliquot of the clear supernatant was taken for scintillation counting to quantitate the radiolabeled tripeptides corresponding to basement membrane collagen and other collagenous materials synthesized by the CAM from ^14 C-proline. The CAM pellets in each tube were solubilized in 0.5 ml of 1.0 N NaOH by boiling in a water bath for 5 min. […]

[2] = tested on: met-1 mouse mammary tumors; test: In vivo efficacy against met-1 mouse mammary tumors
Description: Mammary fat pads of Balb/c immunodeficient (nude) mice were implanted with 1 mm^3 of mammary tumor tissue. These mammary tumors originated from the met-1 mouse mammary tumor cell line and have been propagated by passaging in vivo. When palpable tumors appeared, animals were subdivided into various treatment groups and treated daily with intraperitoneal injections of control vehicle, BTO-967 (50 mg/kg), or BTO-964 (50 mg/kg). A group of untreated control animals was included in the study, because agents used in the vehicle for these test articles (DMSO/ethanol/CremophorEL/PEG 400, 1: 0.5 : 0.5: 6) were themselves found to have cytotoxic activity. Twice weekly, the volumes of the tumors in each animal in each group were measured to gather information on tumor growth (volume) as a function of type of treatment, dose, and time.

| Compound | % Inhibition ([1]; 8.3 μg/CAM, BTO-967 experiment) | 14C-Proline Incorporated into Collagenous Protein (cpm/mg protein) (mean ± S.E.) ([1]; 8.3 μg/CAM, BTO-967 experiment, control 6300 ± 696) | % Inhibition ([1]; 25 μg/CAM, BTO-967 experiment) | 14C-Proline Incorporated into Collagenous Protein (cpm/mg protein) (mean ± S.E.) ([1]; 25 μg/CAM, BTO-967 experiment, control 6300 ± 696) | % Inhibition ([1]; 75 μg/CAM, BTO-967 experiment) | 14C-Proline Incorporated into Collagenous Protein (cpm/mg protein) (mean ± S.E.) ([1]; 75 μg/CAM, BTO-967 experiment, control 6300 ± 696) | effect in the CAM assay [1] | response of Met-1 tumors to treatment ([2]; 50 mg/kg daily i.p.) | Tumor Volume (mm^3) ([2]; 50 mg/kg daily intraperitoneal, 4 weeks post initiation of treatment, mean ± SEM, vehicle 1238 ± 170, none 1570 ± 219) | % Inhibition ([1]; 8.3 μg/CAM, BTO-964 experiment) | 14C-Proline Incorporated into Collagenous Protein (cpm/mg protein) (mean ± S.E.) ([1]; 8.3 μg/CAM, BTO-964 experiment, control 11200 ± 829) | % Inhibition ([1]; 25 μg/CAM, BTO-964 experiment) | 14C-Proline Incorporated into Collagenous Protein (cpm/mg protein) (mean ± S.E.) ([1]; 25 μg/CAM, BTO-964 experiment, control 11200 ± 829) | % Inhibition ([1]; 75 μg/CAM, BTO-964 experiment) | 14C-Proline Incorporated into Collagenous Protein (cpm/mg protein) (mean ± S.E.) ([1]; 75 μg/CAM, BTO-964 experiment, control 11200 ± 829) |
| --- | --- | --- | --- | --- | --- | --- | --- | --- | --- | --- | --- | --- | --- | --- | --- |
| COC(=S)c1cc(I)c(Oc2ccc(OC)cc2)c(I)c1 [BTO-967, methyl 3,5-diiodo-4-(4'-methoxyphenoxy)thiobenzoate] | 13% | 5222 ± 692 cpm/mg_protein | 3% | 6165 ± 1288 cpm/mg_protein | 11% | 5581 ± 1182 cpm/mg_protein | antiangiogenic effect | – | – | – | – | – | – | – | – |
| COc1ccc(Oc2c(I)cc(C=O)cc2I)cc1 [BTO-964, 3,5-Diiodo-4-(4'-methoxyphenoxy)benzadehyde] | – | – | – | – | – | – | antiangiogenic effect | positive response | 876±126 mm^3 | 15% | 9526 ± 1492 cpm/mg_protein | 27% | 8121 ± 1096 cpm/mg_protein | 10% | 10076 ± 928 cpm/mg_protein |
